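The compound was tested at five concentrations on cells cultured in 96-well plates, with a 48-hour exposure period. GI50: concentration for 50% inhibition of growth.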 Active and inactive are the calls of the source. Cut-off read from the data, not from the text of the source: active = GI50 up to about 1.1 µM and inactive = higher.
What was measured:
Experiment in all cases: growth of human tumour cells (NCI), 48 h
[1] = system: UO-31
[2] = system: HOP-92
[3] = system: SK-OV-3
[4] = system: HCT-15
[5] = system: Malme-3M
[6] = system: SN12C
[7] = system: HT-29
[8] = system: NCI-H460
[9] = system: NCI-H522
[10] = system: UACC-62
[11] = system: A549
[12] = system: SR
[13] = system: HCC 2998
[14] = system: SNB-19
[15] = system: RPMI-8226
[16] = system: 786-0
[17] = system: OVCAR-4

| SMILES | GI50 [1] | GI50 [2] | GI50 [3] | GI50 [4] [µM] | GI50 [5] | GI50 [6] | GI50 [7] | GI50 [8] | GI50 [9] | GI50 [10] | GI50 [11] | GI50 [12] | GI50 [13] | GI50 [14] | GI50 [15] | GI50 [16] | GI50 [17] |
| --- | --- | --- | --- | --- | --- | --- | --- | --- | --- | --- | --- | --- | --- | --- | --- | --- | --- |
| Cc1ccc(C(=O)/C=C2\Nc3c(c(=O)oc4ccccc34)N=C2NC23CC4CC(CC(C4)C2)C3)cc1 | > 100 µM (inactive) | 49.2 µM (inactive) | > 100 µM (inactive) | > 100 | > 100 µM (inactive) | > 100 µM (inactive) | > 100 µM (inactive) | > 100 µM (inactive) | > 100 µM (inactive) | > 100 µM (inactive) | > 100 µM (inactive) | > 100 µM (inactive) | > 100 µM (inactive) | > 100 µM (inactive) | > 100 µM (inactive) | > 100 µM (inactive) | – |
| CC1(C)C(=O)N(CCCCCCN2C(=O)C(C)(C)c3ccccc32)c2ccccc21 | 31.2 µM (inactive) | 42.8 µM (inactive) | > 100 µM (inactive) | 34.3 | 25.9 µM (inactive) | 59.7 µM (inactive) | 19 µM (inactive) | 54.3 µM (inactive) | – | 22.9 µM (inactive) | 43.4 µM (inactive) | – | 71.6 µM (inactive) | 68.5 µM (inactive) | 23 µM (inactive) | 18.2 µM (inactive) | 23.4 µM (inactive) |
| O=C1c2cccc3cccc(c23)C(=O)N1CCN(CCO)CCO | 30.5 µM (inactive) | 26.7 µM (inactive) | 55.1 µM (inactive) | 22.8 | 21.2 µM (inactive) | 25.4 µM (inactive) | 27.9 µM (inactive) | 23.4 µM (inactive) | – | 20.6 µM (inactive) | 27.2 µM (inactive) | 11.3 µM (inactive) | 26.2 µM (inactive) | 38.3 µM (inactive) | 12.9 µM (inactive) | 40.6 µM (inactive) | 25.5 µM (inactive) |
| CCOC(=O)C1=C(C)NC(=S)NC1c1ccccc1 (stereo not drawn) | 35.9 µM (inactive) | > 100 µM (inactive) | > 100 µM (inactive) | > 41.3 | > 100 µM (inactive) | > 100 µM (inactive) | > 96.4 µM (inactive) | > 59.3 µM (inactive) | > 63.8 µM (inactive) | > 71.3 µM (inactive) | > 100 µM (inactive) | 21.8 µM (inactive) | > 100 µM (inactive) | – | 33.9 µM (inactive) | > 100 µM (inactive) | 32.3 µM (inactive) |
| Nc1ccc(C(=O)NN2C(=O)C(Cl)C2c2ccc(O)cc2)cc1 (stereo not drawn) | 23.3 µM (inactive) | 24.5 µM (inactive) | 22.8 µM (inactive) | 21.4 | 18.5 µM (inactive) | 20.1 µM (inactive) | 24.7 µM (inactive) | 19.3 µM (inactive) | 11.6 µM (inactive) | 14.9 µM (inactive) | 56.9 µM (inactive) | – | – | 16 µM (inactive) | 49.1 µM (inactive) | 17.5 µM (inactive) | 19.1 µM (inactive) |
| Cc1c(C(=O)O)oc2ccc([N+](=O)[O-])cc12 | > 100 µM (inactive) | 72.4 µM (inactive) | > 100 µM (inactive) | > 100 | > 100 µM (inactive) | > 100 µM (inactive) | > 100 µM (inactive) | > 100 µM (inactive) | > 100 µM (inactive) | > 100 µM (inactive) | > 100 µM (inactive) | – | > 100 µM (inactive) | > 100 µM (inactive) | > 10 µM (inactive) | > 100 µM (inactive) | > 100 µM (inactive) |
| C1=C2/CC[C@H](Sc3ccccc3)[C@H]2C2(CCCCC/1)OCCO2 | 27 µM (inactive) | 18.6 µM (inactive) | 31 µM (inactive) | 28.2 | 28.5 µM (inactive) | > 100 µM (inactive) | 34.6 µM (inactive) | 63.4 µM (inactive) | 17.9 µM (inactive) | 19.6 µM (inactive) | 51.8 µM (inactive) | 42.9 µM (inactive) | 22.3 µM (inactive) | 36.9 µM (inactive) | 24.4 µM (inactive) | 40.2 µM (inactive) | – |
| O=C(N[C@H]1CC2(C=C(I)C(=O)C(I)=C2)OC1=O)OCc1ccccc1 | 18.2 µM (inactive) | – | 34.8 µM (inactive) | 20.9 | 17.3 µM (inactive) | 18.2 µM (inactive) | 17.5 µM (inactive) | 21.1 µM (inactive) | 13.4 µM (inactive) | 16.5 µM (inactive) | 42.8 µM (inactive) | – | 17.9 µM (inactive) | 21.8 µM (inactive) | 26.2 µM (inactive) | 20.8 µM (inactive) | 18.4 µM (inactive) |
| COC(=O)N1C=CC2=C(C)C3Nc4ccccc4C3C(C)=C2C1 (stereo not drawn) | 1.29 µM (inactive) | 2.09 µM (inactive) | 1.86 µM (inactive) | 1.12 | 3.03 µM (inactive) | – | 1.96 µM (inactive) | 0.256 µM (active) | 1.49 µM (inactive) | 1.72 µM (inactive) | 1.69 µM (inactive) | – | 1.95 µM (inactive) | 2.97 µM (inactive) | 0.804 µM (active) | 0.54 µM (active) | 1.34 µM (inactive) |
| COc1ccc(CN2C(=O)C(Cc3cc(OC)c(OC)c(C)c3OC)NC(=O)/C2=C/c2cc(OC)c(OC)c(C)c2OC)cc1 (stereo not drawn) | 23.4 µM (inactive) | 29 µM (inactive) | 34 µM (inactive) | – | 22.6 µM (inactive) | 27.5 µM (inactive) | 24.2 µM (inactive) | 9.98 µM (inactive) | 18.5 µM (inactive) | 33.7 µM (inactive) | 37.1 µM (inactive) | 20.3 µM (inactive) | 23.6 µM (inactive) | – | 28.3 µM (inactive) | 48.4 µM (inactive) | 30.6 µM (inactive) |
| CC(=O)c1ccc(NC(=O)/C(CC(=O)c2sc(-c3cccnc3)nc2C)=N/NC(N)=O)cc1 | 50.4 µM (inactive) | – | > 100 µM (inactive) | 42.3 | > 100 µM (inactive) | 51.6 µM (inactive) | > 100 µM (inactive) | 27.1 µM (inactive) | 98.4 µM (inactive) | 52.2 µM (inactive) | 22.5 µM (inactive) | 33.1 µM (inactive) | > 10 µM (inactive) | 53.6 µM (inactive) | 23.5 µM (inactive) | 27.9 µM (inactive) | > 100 µM (inactive) |
| CCc1cccc(=O)c([O-])c1.CCc1cccc(=O)c([O-])c1.[Bi+3].[Cl-] | 10 µM (inactive) | 12.9 µM (inactive) | 21.4 µM (inactive) | 3.66 | 1.79 µM (inactive) | 10.2 µM (inactive) | 4.31 µM (inactive) | 6.49 µM (inactive) | 1.79 µM (inactive) | 9.98 µM (inactive) | 8.97 µM (inactive) | 3.71 µM (inactive) | 5.93 µM (inactive) | 11 µM (inactive) | – | 9.1 µM (inactive) | 13.6 µM (inactive) |
| Cc1cccc(NC(=O)CC(=O)N2N=C(N(CCC#N)c3ccc(Cl)cc3)CC2c2ccccc2)c1 (stereo not drawn) | > 100 µM (inactive) | > 100 µM (inactive) | – | – | > 100 µM (inactive) | > 100 µM (inactive) | > 100 µM (inactive) | > 100 µM (inactive) | > 100 µM (inactive) | > 100 µM (inactive) | > 100 µM (inactive) | > 100 µM (inactive) | > 100 µM (inactive) | > 100 µM (inactive) | – | > 100 µM (inactive) | > 100 µM (inactive) |
| Brc1cc2c(cc1C1SCCS1)OCO2 | > 100 µM (inactive) | – | > 100 µM (inactive) | > 100 | > 100 µM (inactive) | – | > 100 µM (inactive) | > 100 µM (inactive) | > 100 µM (inactive) | > 100 µM (inactive) | > 100 µM (inactive) | > 100 µM (inactive) | > 100 µM (inactive) | > 100 µM (inactive) | 89.5 µM (inactive) | > 100 µM (inactive) | > 100 µM (inactive) |
| CCOc1ccccc1NC(=O)CC1SC(Nc2ccc([N+](=O)[O-])cc2)=NC1=O (stereo not drawn) | 17.2 µM (inactive) | 10.2 µM (inactive) | – | – | 22.5 µM (inactive) | 20.4 µM (inactive) | 21.7 µM (inactive) | 21.3 µM (inactive) | – | 17.2 µM (inactive) | 18.5 µM (inactive) | – | 16.4 µM (inactive) | 29.3 µM (inactive) | 6.95 µM (inactive) | 16.7 µM (inactive) | 11.6 µM (inactive) |
| CN1C(=O)CCC2[C@@H]3CC=C4C[C@@H](O)CC[C@]4(C)C3CC[C@@]21C (stereo partly drawn) | 33.8 µM (inactive) | – | > 100 µM (inactive) | 71.6 | 82.4 µM (inactive) | – | 36.6 µM (inactive) | 45 µM (inactive) | – | 62.4 µM (inactive) | 46.1 µM (inactive) | – | > 100 µM (inactive) | – | 20.8 µM (inactive) | 94.4 µM (inactive) | 33.4 µM (inactive) |
| CCOc1ccccc1NC(=O)C1=C(C)NC(C)=C(C(=O)Nc2ccccc2OCC)C1c1ccc2c(c1)OCO2 | 21.8 µM (inactive) | 7.36 µM (inactive) | 18 µM (inactive) | – | 26.2 µM (inactive) | 38.7 µM (inactive) | 37.2 µM (inactive) | 29.1 µM (inactive) | 9.89 µM (inactive) | – | 28.2 µM (inactive) | – | 10.1 µM (inactive) | 95.9 µM (inactive) | 17.4 µM (inactive) | 41.3 µM (inactive) | 20.8 µM (inactive) |
| Cn1nc(-c2ccccc2)c(C(=O)/C=C/c2ccc(F)cc2)c(N2CCOCC2)c1=O | 12.9 µM (inactive) | 15.2 µM (inactive) | 32.7 µM (inactive) | 23.6 | – | 28.3 µM (inactive) | 15.9 µM (inactive) | 24.4 µM (inactive) | 14.5 µM (inactive) | 18.1 µM (inactive) | 17.4 µM (inactive) | – | – | 13.7 µM (inactive) | 4.57 µM (inactive) | 16 µM (inactive) | – |

Reference: ChEMBL document CHEMBL1201862, “PubChem BioAssay data set” (2004)
